We go through 28 molecules from patent US10894807B2 (Siemens Medical Solutions USA, Inc., priority 2011, dated 2021).

pKi: −log10 of the molar value.

The assay concerns the target human PSMA (Homo sapiens (Human), UniProt Q04609). Description: Enzymatic assay for in vitro evaluation of PSMA inhibitors (fluorescent assay of PSMA activity, NAAG substrate, OPA detection of glutamate). In kind it is biochemical.

Sequence of human PSMA (Q04609 whole entry): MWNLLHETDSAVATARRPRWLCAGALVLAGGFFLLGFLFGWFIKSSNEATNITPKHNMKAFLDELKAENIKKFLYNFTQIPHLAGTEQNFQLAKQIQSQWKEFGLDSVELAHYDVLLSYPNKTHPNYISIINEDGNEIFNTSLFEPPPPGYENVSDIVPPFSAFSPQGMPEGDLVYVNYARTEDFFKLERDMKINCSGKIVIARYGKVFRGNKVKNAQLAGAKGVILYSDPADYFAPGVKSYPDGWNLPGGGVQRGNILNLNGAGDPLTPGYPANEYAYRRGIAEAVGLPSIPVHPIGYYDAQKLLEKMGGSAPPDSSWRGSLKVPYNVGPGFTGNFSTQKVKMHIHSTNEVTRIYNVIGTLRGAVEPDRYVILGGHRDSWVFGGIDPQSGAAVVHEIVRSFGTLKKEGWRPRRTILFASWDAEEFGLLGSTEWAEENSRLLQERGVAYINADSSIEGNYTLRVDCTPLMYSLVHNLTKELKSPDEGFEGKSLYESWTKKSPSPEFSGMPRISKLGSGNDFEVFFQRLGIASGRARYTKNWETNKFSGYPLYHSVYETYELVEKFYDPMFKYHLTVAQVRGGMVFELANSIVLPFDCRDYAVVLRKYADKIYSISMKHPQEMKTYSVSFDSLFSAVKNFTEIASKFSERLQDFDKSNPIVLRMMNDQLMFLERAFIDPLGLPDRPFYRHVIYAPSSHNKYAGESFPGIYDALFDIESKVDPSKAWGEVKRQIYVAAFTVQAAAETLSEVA

In the case of `O=C(O)CC[C@H](NC(=O)CN(O)C(=O)CCCCn1cc(CCCF)nn1)C(=O)O` [P093, (S)-2-(2-(5-(4-(3-Fluoropropyl)-1H-1,2,3-triazol-1-yl)-N-hydroxypentanamido)-acetamido)pentanedioic Acid], the “PSMA Blkg % (10 μM)” value (compound at 10 μM) was found to be 16%.

For the molecule `CN(C(=O)N[C@@H](CCC(=O)O)C(=O)O)[C@@H](Cc1ccc(NC(=O)CCCCCn2cc(CCCF)nn2)cc1)C(=O)O` [P068], the “PSMA Blkg % (10 μM)” value (compound at 10 μM) is 27%.

One may read the pKi as the Ki on a negative log10 scale, so that one unit is a factor of ten. In the case of `O=C(O)CC[C@H](NC(=O)N[C@@H](CCCCNc1cc(OCC(COc2ccc([N+](=O)[O-])c(NCCCC[C@H](NC(=O)N[C@@H](CCC(=O)O)C(=O)O)C(=O)O)c2)n2cc(CCCF)nn2)ccc1[N+](=O)[O-])C(=O)O)C(=O)O` (stereo in doubt) [P266, (2S)-2-(3-((1)-1-Carboxy-5-((5-(3-(3-(((S)-5-carboxy-5-(3-((S)-1,3-dicarboxypropyl)ureido)pentyl)amino)-4-nitrophenoxy)-2-(4-(3-fluoropropyl)-1H-1,2,3-triazol-1-yl)propoxy)-2-nitrophenyl)amino)pentyl)ureido)pentanedioic Acid], the pKi is 9.52.

Consider `O=C(O)CC[C@H](NC(=O)N[C@@H](CCCCNc1nc(-c2ccnc(Cl)c2)cs1)C(=O)O)C(=O)O` [P236, (S)-2-(3-((S)-1-Carboxy-5-(4-(2-chloropyridin-4-yl)thiazol-2-ylamino)pentyl)ureido)-pentanedioic Acid], for which the “PSMA Blkg % (1.0 μM)” value turned out to be 99%.

In the case of `O=C(O)CC[C@H](NC(=O)N(O)[C@@H](CCCCNC(=O)c1ccc(-n2cc(CCCF)nn2)cc1)C(=O)O)C(=O)O` [P092, (S)-2-(3-((S)-1-Carboxy-5-(4-(4-(3-fluoropropyl)-1H-1,2,3-triazol-1-yl)benzamido)pentyl)-3-hydroxyureido)pentanedioic Acid], the negative logarithm of the Ki (pKi) is 7.51. Further, the “PSMA Blkg % (10 μM)” value (compound at 10 μM) turned out to be 99%.

For `COc1ccc(-c2cn(CC(=O)NCCCC[C@@H](C(=O)O)N(C)C(=O)N[C@@H](CCC(=O)O)C(=O)O)nn2)cc1` [P036, (S)-2-(3-((S)-1-Carboxy-5-(2-(4-(4-methoxyphenyl)-1H-1,2,3-triazol-1-yl)acetamido)-pentyl)3-methylureido)pentanedioic Acid], for the setting “compound at 10 μM”, the “PSMA Blkg % (10 μM)” value was determined as 68%.

On to `CC(=O)N(CCF)CC(CP(=O)(O)O)C(=O)O.O=C(O)C(F)(F)F` (stereo not drawn) [P196, 3-(N-(2-Fluoroethyl)acetamido)-2-(phosphonomethyl)propanoic Acid], for which, under “10 μM”, the “PSMA Blkg % (10 μM)” value is 27%.

For the molecule `O=C(O)CCC(NC(=O)NC(CCCCNC(=O)CC(CC(=O)NCCCCC(NC(=O)N[C@@H](CCC(=O)O)C(=O)O)C(=O)O)NC(=O)c1ccc(-n2cc(CCCF)nn2)cc1)C(=O)O)C(=O)O` (stereo in doubt) [P278, (3S,7S,23S,27S)-15-(4-(4-(3-Fluoropropyl)-1H-1,2,3-triazol-1-yl)benzamido)-5,13,17,25-tetraoxo-4,6,12,18,24,26-hexaazanonacosane-1,3,7,23,27,29-hexacarboxylic Acid], the pKi was 9.70.

With `CC(C)(C)OC(=O)NCCCCN(CC(=O)N[C@@H](CCC(=O)O)C(=O)O)C(=O)NC(N)=O` [P048, (S)-2-(2-(1-(4-(tert-Butoxycarbonylamino)butyl)-3-carbamoylureido)acetamido) pentanedioic Acid], for the setting “compound at 10 μM”, the “PSMA Blkg % (10 μM)” value turned out to be 0%.

In turn, `O=C(O)C(Cn1cc(CCCF)nn1)CP(=O)(O)O` (stereo not drawn) [P189, 3-(4-(3-Fluoropropyl)-1H-1,2,3-triazol-1-yl)-2-(phosphonomethyl)propanoic Acid] gave a negative-log Ki (pKi) of under 6.16.

Consider `O=C(O)CC[C@H](NC(=O)CCN(O)C(=O)CCCc1ccc(-n2cc(CCCF)nn2)cc1)C(=O)O` [P111, (S)-2-(3-(4-(4-(4-(3-Fluoropropyl)-1H-1,2,3-triazol-1-yl)phenyl)-N-hydroxybutanamido)propanamido)pentanedioic Acid], for which the “PSMA Blkg % (10 μM)” value (compound at 10 μM) is listed as 9%.

As to `O=C(O)CC[C@@H](C(=O)O)N(O)C(=O)N[C@@H](CCCCNC(=O)c1ccc(-n2cc(CCCF)nn2)cc1)C(=O)O` [P152, (S)-2-(3-((S)-1-Carboxy-5-(4-(4-(3-fluoropropyl)-1H-1,2,3-triazol-1-yl)benzamido)pentyl)-1-hydroxyureido)pentanedioic Acid], the pKi was 6.89. Moreover, under “compound at 10 μM”, the “PSMA Blkg % (10 μM)” value was determined as 93%.

`CN(C(=O)N[C@@H](CCC(=O)O)C(=O)O)[C@@H](CCCCNC(=O)CN=[N+]=[N-])C(=O)O` [P034, (S)-2-(3-((S)-5-(2-Azidoacetamido)-1-carboxypentyl)-3-methylureido)pentanedioic Acid]: where the note is “compound at 10 μM”, the “PSMA Blkg % (10 μM)” value is given as 70%.

`O=C(O)CC[C@H](NC(=O)N[C@@H](CCc1nc(-c2ccc([N+](=O)[O-])cc2)co1)C(=O)O)C(=O)O` [P279, (S)-2-(3-((S)-1-Carboxy-3-(4-(4-nitrophenyl)oxazol-2-yl)propyl)ureido)pentanedioic Acid] had a pKi of 8.80.

Take `NC(=O)CCC(C(=O)O)n1cc(COc2ccc3ccc(=O)oc3c2)nn1` (stereo not drawn) [P121, 5-Amino-5-oxo-2-(4-(((2-oxo-2H-chromen-7-yl)oxy)methyl)-1H-1,2,3-triazol-1-yl)pentanoic Acid]: the “PSMA Blkg % (10 μM)” value (compound at 10 μM) turned out to be 7%.

Regarding `C[C@@](Cc1cccc(NC(=O)Cn2cc(CCCF)nn2)c1)(NC(=O)N[C@@H](CCC(=O)O)C(=O)O)C(=O)O` [P256, (S)-2-(3-((S)-2-Carboxy-1-(3-(2-(4-(3-fluoropropyl)-1H-1,2,3-triazol-1-yl)acetamido)-phenyl)propan-2-yl)ureido)pentanedioic Acid], the “PSMA Blkg % (1.0 μM)” value was found to be 27%.

Regarding `O=C(O)CC[C@@H](C(=O)O)N(O)C(=O)N[C@@H](CCCCNC(=O)Cn1cc(CCCF)nn1)C(=O)O` [P148, (S)-2-(3-((S)-1-Carboxy-5-(2-(4-(3-fluoropropyl)-1H-1,2,3-triazol-1-yl)acetamido)pentyl)-1-hydroxyureido)pentanedioic Acid], the pKi is 6.60. Also, the “PSMA Blkg % (10 μM)” value (compound at 10 μM) came out at 87%.

With `[N-]=[N+]=NCCCC(=O)N[C@@H](CC(=O)N[C@@H](CCC(=O)O)C(=O)O)C(=O)O` [P023, (S)-2-((S)-3-(4-Azidobutanamido)-3-carboxypropanamido)pentanedioic Acid], the “PSMA Blkg % (10 μM)” value (compound at 10 μM) amounted to 24%.

Molecule `O=C(O)CC[C@H](NC(=O)N[C@@H](CCCCNC(=O)CCC(CCC(=O)NCCCC[C@H](NC(=O)N[C@@H](CCC(=O)O)C(=O)O)C(=O)O)NC(=O)c1ccc(-n2cc(CCCF)nn2)cc1)C(=O)O)C(=O)O` [P282, (3S,7S,25S,29S)-16-(4-(4-(3-Fluoropropyl)-1H-1,2,3-triazol-1-yl)benzamido)-5,13,19,27-tetraoxo-4,6,12,20,26,28-hexaazahentriacontane-1,3,7,25,29,31-hexacarboxylic Acid] had a negative-log Ki (pKi) of 8.96.

In the case of `O=C(O)CC[C@@H](NC(=O)N(O)[C@@H](CC(=O)NCc1ccccc1)C(=O)O)C(=O)O` [P135, (R)-2-(3-((S)-3-(Benzylamino)-1-carboxy-3-oxopropyl)-3-hydroxyureido)pentanedioic Acid], the “PSMA Blkg % (10 μM)” value (compound at 10 μM) came out at 42%.

For the molecule `O=C(O)CC[C@H](NC(=O)N[C@@H](CCCCNC(=O)N1CCN(C(=O)CCC(CCC(=O)N2CCN(C(=O)NCCCC[C@H](NC(=O)N[C@@H](CCC(=O)O)C(=O)O)C(=O)O)CC2)NC(=O)c2ccc(-n3cc(CCCF)nn3)cc2)CC1)C(=O)O)C(=O)O` (stereo in doubt) [P281, (2S,2′S)-2,2′-(((((1S,1′S)-((4,4′-(4-(4-(4-(3-Fluoropropyl)-1H-1,2,3-triazol-1-yl)benzamido)heptanedioyl)bis(piperazine-1,1′-carbonyl))bis(azanediyl))bis(1-carboxypentane-5,1diyl))-bis(azanediyl))-bis(carbonyl))-bis(azanediyl))-dipentanedioic Acid], the pKi was 8.89.

Turning to `O=C(O)CC[C@H](NC(=O)N[C@@H](Cc1ccc(NC(=O)COCCOCCOCCn2cc(CCCF)nn2)cc1)C(=O)O)C(=O)O` [P216], the pKi is 7.66. Also, for the setting “10 μM”, the “PSMA Blkg % (10 μM)” value was 98%.

For the molecule `O=C(O)CC[C@H](NC(=O)N[C@@H](CCCCNC(=O)c1cc(C(=O)NCCCC[C@H](NC(=O)N[C@@H](CCC(=O)O)C(=O)O)C(=O)O)cc(-n2cc(CCCF)nn2)c1)C(=O)O)C(=O)O` [P246, (2S,2′S)-2,2′-(((((1S,1′S)-((5-(4-(3-Fluoropropyl)-1H-1,2,3-triazol-1-yl)isophthaloyl)bis(azanediyl))bis(1-carboxypentane-5,1-diyl))bis(azanediyl))bis(carbonyl))bis(azanediyl))dipentanedioic Acid], the pKi is 9.80 and the “PSMA Blkg % (1.0 μM)” value amounted to 100%.

Regarding `CCC1(CC)C(=O)N([C@@H](CCCCNCc2ccc(OC)cc2)C(=O)O)C(=O)N([C@@H](CCC(=O)O)C(=O)O)C1=O` [P112, (S)-2-(3-((S)-1-Carboxy-5-(4-methoxybenzylamino)pentyl)-5,5-diethyl-2,4,6-trioxotetrahydropyrimidin-1(2H)-yl)pentanedioic Acid], under “compound at 10 μM”, the “PSMA Blkg % (10 μM)” value was determined as 4%.

As for `CCC1(CC)C(=O)N([C@@H](CCCCN(Cc2ccc([N+](=O)[O-])cc2)Cc2ccc([N+](=O)[O-])cc2)C(=O)O)C(=O)N([C@@H](CCC(=O)O)C(=O)O)C1=O` [P104, (S)-2-(3-((S)-5-(Bis(4-nitrobenzyl)amino)-1-carboxypentyl)-5,5-diethyl-2,4,6-trioxotetrahydropyrimidin-1(2H)-yl)pentanedioic Acid], the “PSMA Blkg % (10 μM)” value (compound at 10 μM) was 7%.

As to `O=C(O)CC[C@H](NC(=O)C[C@@H](NC(=O)N1CCN(C(=O)OCc2ccccc2)CC1)C(=O)O)C(=O)O` [P229, (S)-2-((R)-3-(4-((Benzyloxy)carbonyl)piperazine-1-carboxamido)-3-carboxypropanamido)-pentanedioic Acid], the “PSMA Blkg % (1.0 μM)” value stood at 25%.

Regarding `O=C(O)CC[C@H](NC(=O)C[C@H](NC(=O)Cn1cc(CCCF)nn1)C(=O)O)C(=O)O` [P020, (S)-2-((S)-3-Carboxy-3-(2-(4-(3-fluoropropyl)-1H-1,2,3-triazol-1-yl)acetamido)-propanamido)pentanedioic Acid], the “PSMA Blkg % (10 μM)” value (compound at 10 μM) turned out to be 0%.

`CN(C(=O)N[C@@H](CCC(=O)O)C(=O)O)[C@@H](CCCCNCc1ccc(F)cc1)C(=O)O` [P184, (S)-2-(3-((S)-1-Carboxy-5-(4-fluorobenzylamino)pentyl)-3-methylureido)pentanedioic Acid]: the “PSMA Blkg % (10 μM)” value (compound at 10 μM) was found to be 10%.
